From patent US20110152087A1, “Herbicidal compositions comprising flufenacet” (Bayer CropScience AG, priority 2009, published 2011)

Key:
Type in all cases: in vivo
[1] = system: STEME=Stellaria media=weed; test: Greenhouse trial, post-emergence action against weeds (test method 1); conditions: PO application, about 3 weeks after application; g of AS/ha: flufenacet 120, diclofop 378, diflufenican 120, mixture 120+378+120
Protocol: (§1) In the standard design of the test, seeds of various broad-leaved weed and weed grass biotypes (origins) were sown in a 8-13 cm diameter pot filled with natural soil of a standard field soil (loamy silt; non-sterile) and covered with a covering soil layer of about 1 cm. The pots were then cultivated in a greenhouse (12-16 h of light, temperature day 20-22° C., night 15-18° C.) until the time of application. The pots were treated on a laboratory track sprayer with spray liquors comprising the compositions according to the invention, mixtures of the prior art or components used individually. Application of the active compounds or active compound combinations formulated as WG, WP, EC or otherwise was carried out at the appropriate growth stages of the plants. The application rate for the spray application was 100-600 l of water/ha. After the treatment, the plants were returned to the greenhouses.
(§2) About 3 weeks after the application, the soil action or/and foliar action was assessed visually according to a scale of 0-100% in comparison to an untreated comparative group: 0%=no noticeable effect compared to the untreated comparative group; 100%=full effect compared to the untreated comparative group.
(§3) (notes: the term “seeds” also includes vegetative propagation forms such as, for example, rhizome pieces; abbreviations used: h light=hours of illumination, g of AS/ha=gram of active substance per hectare, l/ha=liter per hectare, S=sensitive, R=resistant) • 1. Post-emergence action against weeds: seeds of various broad-leaved weed and weed grass biotypes (origins) were sown in a 8-13 cm diameter pot filled with natural soil of a standard field soil (loamy silt; non-sterile) and covered with a covering soil layer of about 1 cm. The pots were then cultivated in a greenhouse (12-16 h of light, temperature day 20-22° C., night 15-18° C.) until the time of application. The pots were treated at various BBCH stages between 11-25 of the seeds/plants, i.e. generally between two to three weeks after the start of the cultivation, on a laboratory track sprayer with spray liquors comprising the compositions according to the invention, mixtures or components used individually, as WG, WP, EC or other formulations. The application rate for the spray application was 100-600 l of water/ha. After the treatment, the plants were returned to the greenhouses and, when required, treated with fertilizer and watered. • 2. Selective post-emergence action: seeds of various crop species (origins) were sown in a 8-13 cm diameter pot filled with natural soil of a standard field soil (loamy silt; non-sterile) and covered with a covering soil layer of about 1 cm. The pots were then cultivated in a greenhouse (12-16 h of light, temperature day 20-22° C., night 15-18° C.) until the time of application. The pots were treated at various BBCH stages between 11-32 of the seeds/plants, i.e. generally between two to four weeks after the start of the cultivation, on a laboratory track sprayer with spray liquors comprising the compositions according to the invention, mixtures or components used individually, as WG, WP, EC or other formulations. The application rate for the spray application was 100-600 l of water/ha. After the treatment, the plants were returned to the greenhouses and, when required, treated with fertilizer and watered. The pots were cultivated in a greenhouse (12-16 h light, temperature day 20-22° C., night 15-18° C.).
(§4) E=(A+B+C)−(A×B+A×C+B×C)/100+(A×B×C)/10 000 • in which: • A, B, C=each the activity of the components A or B or C in percent at a dosage of a or b gram of AS/ha; • E^C=expected value according to Colby in % at a dosage of a+b gram of AS/ha. • Δ=difference (%) of measured value−%-to expected value−%-(measured value minus expected value) • Δ^D=difference (%) of the measured value of an observation A−%-to the measured value of an observation B−%. […]

[2] = system: ALOMY=Alopecurus myosuroides=weed; test: as above; conditions: PO application, about 3 weeks after application; g of AS/ha: flufenacet 120, diclofop 378, diflufenican 120, mixture 120+378+120
Protocol: as §1, §2, §3, §4

[3] = system: APESV=Apera Spica-venti=weed; test: as above; conditions: PO application, about 3 weeks after application; g of AS/ha: flufenacet 120, diclofop 378, diflufenican 120, mixture 120+378+120
Protocol: as §1, §2, §3, §4

[4] = system: TRZAW=Triticum aestivum, winter wheat=crop plant; test: Greenhouse trial, selective post-emergence action on crop plants (test method 2)
Protocol: as §1, §2, §3, §4

[5] = system: TRZAS=Triticum aestivum, summer wheat=crop plant; test: as above
Protocol: as §1, §2, §3, §4

[6] = PO application, about 3 weeks after application, g of AS/ha: flufenacet 120, diclofop 378, diflufenican 120, mixture 120+378+120

Row | Compound | activity STEME, visual assessment on scale 0-100% versus untreated [1] | activity ALOMY, visual assessment on scale 0-100% versus untreated [2] | activity APESV, visual assessment on scale 0-100% versus untreated [3] | action on crop plant TRZAW, visual assessment on scale 0-100% versus untreated [4, 6] | action on crop plant TRZAS, visual assessment on scale 0-100% versus untreated [5, 6] | action on crop plant TRZAW, visual assessment on scale 0-100% versus untreated ([4]; in vivo, po) | action on crop plant TRZAS, visual assessment on scale 0-100% versus untreated ([5]; in vivo, po)
1 | CC(Oc1ccc(Oc2ccc(Cl)cc2Cl)cc1)C(=O)O (racemic) [(B) diclofop, (±)-2-[4-(2,4-dichlorophenoxy)phenoxy]propanoic acid] | 0% | 15% | 0% | 20% | 10% | – | –
2 | CC(C)N(C(=O)COc1nnc(C(F)(F)F)s1)c1ccc(F)cc1 [(A) flufenacet, N-(4-fluorophenyl)-N-(1-methylethyl)-2-[[5-(trifluoromethyl)-1,3,4-thiadiazol-2-yl]oxy]acetamide] | 30% | 65% | 60% | – | – | 50% | 40%
3 | O=C(Nc1ccc(F)cc1F)c1cccnc1Oc1cccc(C(F)(F)F)c1 [(C) diflufenican, N-(2,4-difluorophenyl)-2-[3-(trifluoromethyl)phenoxy]-3-pyridinecarboxamide] | 30% | 10% | 5% | 5% | 5% | – | –
